Measured values: paper PMC10364322, “Evaluation of chronic drug-induced electrophysiological and cytotoxic effects using human-induced pluripotent stem cell-derived cardiomyocytes (hiPSC-CMs)” (Frontiers in Pharmacology, 2023)
Where two headings read alike, the source gives them in different places.

Tested on: hiPSC-CMs (iCell-Cardiomyocytes^2)
How it was run: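 Monolayers of hiPSC-CMs on fibronectin-coated MEA plates, 50 K/well, kept at 37°C, 5% CO2; compounds added in 0.1% final DMSO after 5-min baseline. Field potential and impedance parameters expressed as mean ± SD percent change from baseline; arrhythmic events noted; cytotoxicity fluorescence normalized to DMSO, Kruskal-Wallis.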

BR (beating rate), % change from baseline (1 µM, 2h): 4±4%
FPD (field-potential duration), % change from baseline (1 µM, 2h): 0±2.5%
FPDc (field-potential duration corrected by beat-rate), % change from baseline (1 µM, 2h): 0.8±1.8%
BR (beating rate), % change from baseline (1 µM, 24h): 1±5%
FPD (field-potential duration), % change from baseline (1 µM, 24h): 5±5.9%
FPDc (field-potential duration corrected by beat-rate), % change from baseline (1 µM, 24h): 5.1±4.4%
BR (beating rate), % change from baseline (1 µM, 48h): -7±4%
FPD (field-potential duration), % change from baseline (1 µM, 48h): 11.5±3.8%
FPDc (field-potential duration corrected by beat-rate), % change from baseline (1 µM, 48h): 8.8±2.5%
BR (beating rate), % change from baseline (1 µM, 72h): -10±1%
FPD (field-potential duration), % change from baseline (1 µM, 72h): 16±2.7%
FPDc (field-potential duration corrected by beat-rate), % change from baseline (1 µM, 72h): 11.9±2.1%
BR (beating rate), % change from baseline (1 µM, 96h): -15±4%
FPD (field-potential duration), % change from baseline (1 µM, 96h): 22±4.6%
FPDc (field-potential duration corrected by beat-rate), % change from baseline (1 µM, 96h): 15.1±3%
BR (beating rate), % change from baseline (3 µM, 72h): -9±1%
FPD (field-potential duration), % change from baseline (3 µM, 72h): 12±0.8%
FPDc (field-potential duration corrected by beat-rate), % change from baseline (3 µM, 72h): 8.6±0.6%
BR (beating rate), % change from baseline (3 µM, 96h): -18±2%
FPD (field-potential duration), % change from baseline (3 µM, 96h): 20.9±1.6%
FPDc (field-potential duration corrected by beat-rate), % change from baseline (3 µM, 96h): 13.5±1.6%
BR (beating rate), % change from baseline (3 µM, 2h): 2±2%
FPD (field-potential duration), % change from baseline (3 µM, 2h): 0.3±1.9%
FPDc (field-potential duration corrected by beat-rate), % change from baseline (3 µM, 2h): 1.1±1.6%
BR (beating rate), % change from baseline (3 µM, 24h): 1±3%
FPD (field-potential duration), % change from baseline (3 µM, 24h): 4.3±0.8%
FPDc (field-potential duration corrected by beat-rate), % change from baseline (3 µM, 24h): 4.6±1.6%
BR (beating rate), % change from baseline (3 µM, 48h): -7±2%
FPD (field-potential duration), % change from baseline (3 µM, 48h): 10.9±2.8%
FPDc (field-potential duration corrected by beat-rate), % change from baseline (3 µM, 48h): 8.2±1.8%
BR (beating rate), % change from baseline (10 µM, 2h): 2±2%
FPD (field-potential duration), % change from baseline (10 µM, 2h): 0.3±1.7%
FPDc (field-potential duration corrected by beat-rate), % change from baseline (10 µM, 2h): 1±1.6%
BR (beating rate), % change from baseline (10 µM, 24h): 1±3%
FPD (field-potential duration), % change from baseline (10 µM, 24h): 5.3±3.7%
FPDc (field-potential duration corrected by beat-rate), % change from baseline (10 µM, 24h): 5.7±2.8%
BR (beating rate), % change from baseline (10 µM, 48h): -7±3%
FPD (field-potential duration), % change from baseline (10 µM, 48h): 13.1±5.3%
FPDc (field-potential duration corrected by beat-rate), % change from baseline (10 µM, 48h): 10.3±4.5%
BR (beating rate), % change from baseline (10 µM, 72h): -10±1%
FPD (field-potential duration), % change from baseline (10 µM, 72h): 14.8±5.3%
FPDc (field-potential duration corrected by beat-rate), % change from baseline (10 µM, 72h): 11.2±4.9%
BR (beating rate), % change from baseline (10 µM, 96h): -17±1%
FPD (field-potential duration), % change from baseline (10 µM, 96h): 23.4±6.5%
FPDc (field-potential duration corrected by beat-rate), % change from baseline (10 µM, 96h): 16±5.7%
BR (beating rate), % change from baseline (30 µM, 2h): 2±3%
FPD (field-potential duration), % change from baseline (30 µM, 2h): 3.4±1.3%
FPDc (field-potential duration corrected by beat-rate), % change from baseline (30 µM, 2h): 4±1.3%
BR (beating rate), % change from baseline (30 µM, 24h): 1±3%
FPD (field-potential duration), % change from baseline (30 µM, 24h): 7.4±4.1%
FPDc (field-potential duration corrected by beat-rate), % change from baseline (30 µM, 24h): 7.7±2.9%
BR (beating rate), % change from baseline (30 µM, 48h): -7±1%
FPD (field-potential duration), % change from baseline (30 µM, 48h): 13.9±3.1%
FPDc (field-potential duration corrected by beat-rate), % change from baseline (30 µM, 48h): 11.4±2.7%
BR (beating rate), % change from baseline (30 µM, 72h): -9±2%
FPD (field-potential duration), % change from baseline (30 µM, 72h): 15.6±2%
FPDc (field-potential duration corrected by beat-rate), % change from baseline (30 µM, 72h): 12.1±2.1%
BR (beating rate), % change from baseline (30 µM, 96h): -16±2%
FPD (field-potential duration), % change from baseline (30 µM, 96h): 23.3±2.4%
FPDc (field-potential duration corrected by beat-rate), % change from baseline (30 µM, 96h): 16±2.1%
SMILES: C[C@H](CS)C(=O)N1CCC[C@H]1C(=O)O [Captopril]
cessation of beating, flat T-wave or arrhythmic-like events (all concentrations tested, up to 96 h): no cessation of beating, flat T-wave or arrhythmic-like events were detected
